Columns and labels:
[1] = target: T1, CK1α (Homo sapiens, UniProt P48729); experiment: CK1α NanoBit Assay (HiBiT-tagged CSNK1A1, HEK293 clonal lines); assay type: cell-based; conditions: HEK293 HiBiT-CSNK1A1/LgBiT cells, 24 h incubation
T1 construct: HEK293 clonal lines with CRISPR KI HiBiT tag on CSNK1A1
Outline: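 HEK293 clones carrying a CRISPR knock-in HiBiT tag on CSNK1A1 and stably expressing LgBiT are treated with compound for 24 hours at 37° C, 5% CO2, then read by luminescence. Response is normalized as 100*(S−N)/(P−N) against plate negative and positive controls, and DC50 values are derived.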

[2] = target: CRBN/DDB1 (Homo sapiens, UniProt Q96SW2); experiment: HTRF binding assay (displacement of Cy5-thalidomide probe from CRBN/DDB1); conditions: CRBN/DDB1 2.5 nM, Cy5-Thalidomide 100 nM, 30 min; geometric mean; read-out: HTRF_Thali_Disp_DR_geo_IC50
Text: Binding of test compounds to CRBN/DDB1 was monitored in an HTRF assay using 1-[5-({2-[2-(2-{[2-(2,6-dioxopiperidin-3-yl)-1,3-dioxo-2,3-dihydro-1H-isoindol-4-yl]oxy}acetamido)ethoxy]ethyl}carbamoyl)pentyl]-3,3-dimethyl-2-[(1E,3E)-5-[(2E)-1,3,3-trimethyl-5-sulfo-2,3-dihydro-1H-indol-2-ylidene]penta-1,3-dien-1-yl]-3H-indol-1-ium-5-sulfonate as a fluorescent probe. In this assay, compounds displace the fluorescently labeled thalidomide-based probe bound to CRBN and fluorescence is monitored with increasing compound concentration. Assays were conducted in Greiner white 384 well HiBase plates (Cat. No 784075-25) in 10 μL total volume. A one pot detection solution of CRBN/DDB1 (2.5 nM), anti-His Terbium Cryptate Gold (1×, PerkinElmer Cat. #: 61HI2TLB), and Cy5-Thalidomide (100 nM, Tenova Cat.: T52461) was prepared in 20 mM HEPES, 20 mM NaCl, 0.2 mM TCEP, 0.2 mM EDTA, and 0.005% Tween20 was dispensed to each assay plate. Test compounds were stored in dry, ambient temperatures at 10 mM. A 10-point, 1:3 dilution series was prepared from 10 mM stock concentrations in Echo-compatible LDV plates. 10 nL of each compound dilution series was dispensed into assays wells using an Echo 650 (Labcyte inc. USA). 10 nL of 10 mM lenalidomide (Selleckchem Cat no. S1029) was transferred into the active-control wells for the assay and 10 nL of DMSO was transferred into the negative control wells. The assay was then allowed to incubate for 30 min at ambient temperature after transferring the test compounds. Plate measurements were taken on a Pherastar FSX (BMG Labtech, Germany) using the HTRF Red filter (Ex. 337 nm, em1: 620 nm, em2: 665 nm) (Flashes: 50, Integration time: 60-400 μs, Z-height: 10 mm, Ratio-multiplier: 10,000). Analysis, HTRF ratio and IC50 values were derived using KNIME analytics (KNIME Zurich) transformation and fitting within Collaborative Drug Discovery (Collaborative Drug Discovery USA) using a 4-parameter logistic fit. HTRF ratio calculation was performed using the following formula: […]
where Y represents the HTRF ratio response (as defined previously), X the compound concentration in μM, Ymin the minimum response plateau, Ymax the maximum response plateau, IC50 the concentration of agonist that gives a response half way between Ymin and Ymax and HillSlope the steepness of the family of curves. No fitting model constraints was applied on Ymin, or Ymax whilst IC50>0 and −0.5>HillSlope>−3
Ki values were derived from the geometric mean of the IC50 values using the Cheng-Prusoff transformation:
where [L] represents the concentration of fluorescent probe in μM, Kd the affinity (binding constant) of the fluorescent probe in units of μM and IC50 the concentration of agonist that gives a response halfway between Ymin and Ymax (as described in 1.2.1)
Analysis and IC50 values were derived using KNIME analytics (KNIME, Zurich) transformation and fitting within Collaborative Drug Discovery (Collaborative Drug Discovery, USA) as described in 1.2.1. Ki values were derived from the geometric mean of the IC50 values using the Cheng-Prusoff transformation as described in 2.2.2. Data was visualized in GraphPad Prism 8.1.2 (GraphPad, USA) and reported as mean and standard deviation. Microsoft Office Excel 2012 (Redmond, WA) was used for calculation of mean and standard deviation.
IC50 data are reported in Table 3 for compounds in Table 1. In Table 3 below, According to the code, A represents a IC50 value of ≤0.1 μM, B represents a IC50 value>0.1 μM and ≤1 μM, C represents an IC50 value>1 μM.

T1 sequence (P48729 whole entry): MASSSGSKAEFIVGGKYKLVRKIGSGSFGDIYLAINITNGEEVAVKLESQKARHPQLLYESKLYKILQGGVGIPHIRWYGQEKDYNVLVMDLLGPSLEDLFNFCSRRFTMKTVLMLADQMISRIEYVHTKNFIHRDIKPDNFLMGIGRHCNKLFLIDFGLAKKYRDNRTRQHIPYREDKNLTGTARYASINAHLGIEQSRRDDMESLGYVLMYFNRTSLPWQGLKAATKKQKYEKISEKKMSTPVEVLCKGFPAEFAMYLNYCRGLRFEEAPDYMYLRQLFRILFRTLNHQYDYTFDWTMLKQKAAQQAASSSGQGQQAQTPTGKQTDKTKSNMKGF
T1 sequence (Q96SW2 whole entry, further chain): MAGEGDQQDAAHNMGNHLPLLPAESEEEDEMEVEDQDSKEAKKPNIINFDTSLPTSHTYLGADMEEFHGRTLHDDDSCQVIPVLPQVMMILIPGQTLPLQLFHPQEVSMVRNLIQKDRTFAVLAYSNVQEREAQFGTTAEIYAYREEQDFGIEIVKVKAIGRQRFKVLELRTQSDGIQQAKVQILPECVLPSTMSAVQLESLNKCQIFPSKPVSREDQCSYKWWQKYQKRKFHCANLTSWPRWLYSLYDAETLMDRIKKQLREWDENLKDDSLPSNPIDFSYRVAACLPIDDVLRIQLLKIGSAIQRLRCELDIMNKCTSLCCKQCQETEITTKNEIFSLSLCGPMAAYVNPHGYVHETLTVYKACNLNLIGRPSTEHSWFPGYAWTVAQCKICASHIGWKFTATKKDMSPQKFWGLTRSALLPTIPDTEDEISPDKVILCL
T1 sequence (Q16531 2-1140 partner limits assumed): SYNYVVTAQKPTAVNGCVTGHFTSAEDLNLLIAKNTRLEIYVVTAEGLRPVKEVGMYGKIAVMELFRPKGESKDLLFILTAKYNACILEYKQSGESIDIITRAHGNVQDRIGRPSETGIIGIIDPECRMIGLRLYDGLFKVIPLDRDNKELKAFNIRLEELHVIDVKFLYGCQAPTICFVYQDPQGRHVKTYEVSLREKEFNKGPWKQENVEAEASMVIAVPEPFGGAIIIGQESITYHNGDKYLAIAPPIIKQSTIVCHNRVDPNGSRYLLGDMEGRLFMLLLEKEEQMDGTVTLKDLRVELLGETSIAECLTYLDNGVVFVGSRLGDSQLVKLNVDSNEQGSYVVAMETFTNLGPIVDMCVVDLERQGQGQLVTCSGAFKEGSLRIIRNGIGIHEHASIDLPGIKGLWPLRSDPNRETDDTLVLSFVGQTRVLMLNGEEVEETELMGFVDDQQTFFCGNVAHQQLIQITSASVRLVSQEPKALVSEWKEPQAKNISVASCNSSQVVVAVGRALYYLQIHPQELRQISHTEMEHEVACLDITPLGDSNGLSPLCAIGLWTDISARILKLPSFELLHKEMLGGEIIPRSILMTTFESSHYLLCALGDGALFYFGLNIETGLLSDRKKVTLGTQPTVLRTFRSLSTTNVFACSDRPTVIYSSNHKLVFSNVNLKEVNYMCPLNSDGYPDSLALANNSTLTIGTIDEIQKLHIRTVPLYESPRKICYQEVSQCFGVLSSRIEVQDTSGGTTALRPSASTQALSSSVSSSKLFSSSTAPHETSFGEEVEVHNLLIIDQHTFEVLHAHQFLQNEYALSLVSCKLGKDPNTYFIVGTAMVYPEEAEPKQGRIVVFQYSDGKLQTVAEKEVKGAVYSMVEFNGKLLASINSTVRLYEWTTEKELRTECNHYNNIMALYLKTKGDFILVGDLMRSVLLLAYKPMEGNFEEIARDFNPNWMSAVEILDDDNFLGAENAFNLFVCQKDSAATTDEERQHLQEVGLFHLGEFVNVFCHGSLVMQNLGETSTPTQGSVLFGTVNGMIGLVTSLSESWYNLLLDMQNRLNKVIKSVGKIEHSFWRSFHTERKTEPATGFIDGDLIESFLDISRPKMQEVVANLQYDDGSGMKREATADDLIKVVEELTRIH
CRBN/DDB1, sequence (Q96SW2 whole entry, species assumed): as the sequence (Q96SW2 whole entry, further chain) above
CRBN/DDB1, sequence (Q16531 whole entry partner, species assumed): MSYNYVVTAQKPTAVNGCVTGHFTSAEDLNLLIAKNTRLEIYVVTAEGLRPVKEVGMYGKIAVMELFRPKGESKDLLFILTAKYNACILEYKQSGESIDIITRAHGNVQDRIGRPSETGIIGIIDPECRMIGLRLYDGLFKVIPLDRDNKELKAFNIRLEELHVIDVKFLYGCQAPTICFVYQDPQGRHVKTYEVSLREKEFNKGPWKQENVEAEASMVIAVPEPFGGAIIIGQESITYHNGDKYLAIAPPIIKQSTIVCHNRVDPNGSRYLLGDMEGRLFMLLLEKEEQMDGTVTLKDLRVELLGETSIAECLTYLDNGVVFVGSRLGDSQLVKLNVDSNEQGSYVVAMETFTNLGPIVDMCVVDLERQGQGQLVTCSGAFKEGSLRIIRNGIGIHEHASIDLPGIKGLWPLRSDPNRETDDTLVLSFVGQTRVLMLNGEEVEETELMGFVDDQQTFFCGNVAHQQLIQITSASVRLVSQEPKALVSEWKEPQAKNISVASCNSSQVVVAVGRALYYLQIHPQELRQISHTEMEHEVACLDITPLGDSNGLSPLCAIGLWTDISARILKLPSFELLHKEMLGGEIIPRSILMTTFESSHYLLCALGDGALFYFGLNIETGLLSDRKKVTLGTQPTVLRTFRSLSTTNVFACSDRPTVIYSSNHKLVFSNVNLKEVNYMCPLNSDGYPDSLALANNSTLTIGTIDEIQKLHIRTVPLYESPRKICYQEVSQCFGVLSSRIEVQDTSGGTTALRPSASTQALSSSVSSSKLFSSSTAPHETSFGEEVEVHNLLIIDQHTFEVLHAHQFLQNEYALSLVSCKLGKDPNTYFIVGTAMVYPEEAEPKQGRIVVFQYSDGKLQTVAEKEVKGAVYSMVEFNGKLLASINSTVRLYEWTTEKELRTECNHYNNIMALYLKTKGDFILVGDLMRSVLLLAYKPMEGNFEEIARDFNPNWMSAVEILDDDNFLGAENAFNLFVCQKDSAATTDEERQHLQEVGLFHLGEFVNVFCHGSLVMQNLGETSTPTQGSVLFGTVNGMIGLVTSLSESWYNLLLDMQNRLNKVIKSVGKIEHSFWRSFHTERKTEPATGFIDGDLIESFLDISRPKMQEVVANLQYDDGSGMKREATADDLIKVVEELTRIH

Compound | DC50 [1] [µM] | IC50 [2] [nM]
O=C1CCC(N2Cc3cc(NC(=O)N4c5cccc(F)c5CC45COC5)ccc3C2=O)C(=O)N1 (stereo not drawn) [Compound 304, N-(2-(2,6-dioxopiperidin-3-yl)-1-oxoisoindolin-5-yl)-4-fluorospiro[indoline-2,3′-oxetane]-1-carboxamide] | < 0.1 | 100 to 1000
N#Cc1cccc2c1N(C(=O)Nc1ccc3c(c1)CN(C1CCC(=O)NC1=O)C3=O)CC2 (stereo not drawn) [Compound 147, 7-cyano-N-(2-(2,6-dioxopiperidin-3-yl)-1-oxoisoindolin-5-yl)indoline-1-carboxamide] | > 1 | 100 to 1000
CC1CN(C(=O)Nc2ccc3c(c2)CN(C2CCC(=O)NC2=O)C3=O)Cc2ccccc21 (stereo not drawn) [Compound 191, N-(2-(2,6-dioxopiperidin-3-yl)-1-oxoisoindolin-5-yl)-4-methyl-3,4-dihydroisoquinoline-2(1H)-carboxamide] | < 0.1 | 100 to 1000
O=C1CCC(N2Cc3cc(NC(=O)N4CC(c5ccccc5)C4)ccc3C2=O)C(=O)N1 (stereo not drawn) [Compound 111, N-(2-(2,6-dioxopiperidin-3-yl)-1-oxoisoindolin-5-yl)-3-phenylazetidine-1-carboxamide] | 0.1 to 1 | 100 to 1000
O=C1CCC(N2Cc3cc(NC(=O)N4c5ccc(C(F)(F)F)cc5CC45COC5)ccc3C2=O)C(=O)N1 (stereo not drawn) [Compound 298] | < 0.1 | 100 to 1000
O=C1CCC(N2Cc3cc(NC(=O)N4CCc5cccc(Cl)c54)ccc3C2=O)C(=O)N1 (stereo not drawn) [Compound 152, 7-chloro-N-(2-(2,6-dioxopiperidin-3-yl)-1-oxoisoindolin-5-yl) indoline-1-carboxamide] | < 0.1 | 100 to 1000
COC[C@@H]1Cc2c(F)cccc2N1C(=O)Nc1ccc2c(c1)CN(C1CCC(=O)NC1=O)C2=O (stereo partly drawn) [Compound 314, (2S)—N-(2-(2,6-dioxopiperidin-3-yl)-1-oxoisoindolin-5-yl)-4-fluoro-2-(methoxymethyl)indoline-1-carboxamide] | < 0.1 | 100 to 1000
O=C1CCC(N2Cc3cc(NC(=O)N4CCc5ccc(C6COC6)cc54)ccc3C2=O)C(=O)N1 (stereo not drawn) [Compound 347, N-(2-(2,6-dioxopiperidin-3-yl)-1-oxoisoindolin-5-yl)-6-(oxetan-3-yl)indoline-1-carboxamide] | 0.1 to 1 | 100 to 1000
CC1(C)Cc2ccccc2N1C(=O)Nc1ccc2c(c1)CN(C1CCC(=O)NC1=O)C2=O (stereo not drawn) [Compound 132] | < 0.1 | 100 to 1000
O=C1CCC(N2Cc3cc(NC(=O)N4c5ccccc5C[C@H]4COC(F)F)ccc3C2=O)C(=O)N1 (stereo partly drawn) [Compound 309, (2S)-2-((difluoromethoxy)methyl)-N-(2-(2,6-dioxopiperidin-3-yl)-1-oxoisoindolin-5-yl)indoline-1-carboxamide] | < 0.1 | 100 to 1000
CC1Cc2cc(C(F)(F)F)ncc2N1C(=O)Nc1ccc2c(c1)CN(C1CCC(=O)NC1=O)C2=O (stereo not drawn) [Compound 353, N-(2-(2,6-dioxopiperidin-3-yl)-1-oxoisoindolin-5-yl)-2-methyl-5-(trifluoromethyl)-2,3-dihydro-1H-pyrrolo[2,3-c]pyridine-1-carboxamide] | < 0.1 | 100 to 1000
CCOC[C@@H]1Cc2ccccc2N1C(=O)Nc1ccc2c(c1)CN(C1CCC(=O)NC1=O)C2=O (stereo partly drawn) [Compound 313, (2S)—N-(2-(2,6-dioxopiperidin-3-yl)-1-oxoisoindolin-5-yl)-2-(ethoxymethyl)indoline-1-carboxamide] | < 0.1 | 100 to 1000
O=C1CCC(N2Cc3cc(NC(=O)N4CCc5ccc(C6CC6)cc54)ccc3C2=O)C(=O)N1 (stereo not drawn) [Compound 291, 6-cyclopropyl-N-(2-(2,6-dioxopiperidin-3-yl)-1-oxoisoindolin-5-yl)indoline-1-carboxamide] | < 0.1 | 100 to 1000
O=C1CCC(N2Cc3cc(NC(=O)N4CCc5cccc(F)c54)ccc3C2=O)C(=O)N1 (stereo not drawn) [Compound 163, N-(2-(2,6-dioxopiperidin-3-yl)-1-oxoisoindolin-5-yl)-7-fluoroindoline-1-carboxamide] | < 0.1 | 100 to 1000
COCC1Cc2cc(C(F)(F)F)ncc2N1C(=O)Nc1ccc2c(c1)CN(C1CCC(=O)NC1=O)C2=O (stereo not drawn) [Compound 321, N-(2-(2,6-dioxopiperidin-3-yl)-1-oxoisoindolin-5-yl)-2-(methoxymethyl)-5-(trifluoromethyl)-2,3-dihydro-1H-pyrrolo[2,3-c]pyridine-1-carboxamide] | < 0.1 | 100 to 1000
O=C1CCC(N2Cc3cc(NC(=O)N4c5cccc(F)c5C[C@H]4COCC(F)(F)F)ccc3C2=O)C(=O)N1 (stereo partly drawn) [Compound 300, (2S)—N-(2-(2,6-dioxopiperidin-3-yl)-1-oxoisoindolin-5-yl)-4-fluoro-2-((2,2,2-trifluoroethoxy)methyl)indoline-1-carboxamide] | < 0.1 | 100 to 1000
O=C1CCC(N2Cc3cc(NC(=O)N4c5cccc(F)c5C[C@H]4COC(F)F)ccc3C2=O)C(=O)N1 (stereo partly drawn) [Compound 308, (2S)-2-((difluoromethoxy)methyl)-N-(2-(2,6-dioxopiperidin-3-yl)-1-oxoisoindolin-5-yl)-4-fluoroindoline-1-carboxamide] | < 0.1 | 100 to 1000
CC1c2ccccc2N(C(=O)Nc2ccc3c(c2)CN(C2CCC(=O)NC2=O)C3=O)C1C (stereo not drawn) [Compound 123, N-(2-(2,6-dioxopiperidin-3-yl)-1-oxoisoindolin-5-yl)-2,3-dimethylindoline-1-carboxamide] | < 0.1 | 100 to 1000
O=C1CCC(N2Cc3cc(NC(=O)N4CCc5ccc(C6CCOCC6)cc54)ccc3C2=O)C(=O)N1 (stereo not drawn) [Compound 365, N-(2-(2,6-dioxopiperidin-3-yl)-1-oxoisoindolin-5-yl)-6-(tetrahydro-2H-pyran-4-yl)indoline-1-carboxamide] | 0.1 to 1 | 100 to 1000
Cc1cc(C)c2c(c1)N(C(=O)Nc1ccc3c(c1)CN(C1CCC(=O)NC1=O)C3=O)CC2 (stereo not drawn) [Compound 209] | < 0.1 | 100 to 1000
O=C1CCC(N2Cc3cc(NC(=O)N4c5ccccc5C5CC54)ccc3C2=O)C(=O)N1 (stereo not drawn) [Compound 305, N-(2-(2,6-dioxopiperidin-3-yl)-1-oxoisoindolin-5-yl)-1a, 6b-dihydrocyclopropa[b]indole-2(1H)-carboxamide] | < 0.1 | 100 to 1000
O=C1CCC(N2Cc3cc(NC(=O)N4c5ccc(F)cc5CC45COC5)ccc3C2=O)C(=O)N1 (stereo not drawn) [Compound 306, N-(2-(2,6-dioxopiperidin-3-yl)-1-oxoisoindolin-5-yl)-5-fluorospiro[indoline-2,3′-oxetane]-1-carboxamide] | < 0.1 | 100 to 1000
O=C1CC[C@@H](N2Cc3cc(NC(=O)N4c5ccccc5C[C@H]4C(F)(F)F)ccc3C2=O)C(=O)N1 (single isomer, unassigned) [Compound 359] | < 0.1 | > 1000
COCc1ccc2c(c1)CCN2C(=O)Nc1ccc2c(c1)CN(C1CCC(=O)NC1=O)C2=O (stereo not drawn) [Compound 330, N-(2-(2,6-dioxopiperidin-3-yl)-1-oxoisoindolin-5-yl)-5-(methoxymethyl)indoline-1-carboxamide] | < 0.1 | 100 to 1000
